Assay results reported in patent US11541057B2, “Thienopyrimidinone NMDA receptor modulators and uses thereof” (Cadent Therapeutics, Inc., priority 2015, dated 2023).

molecular target: T1, NMDA receptor GRIN1/GRIN2B (NR2B) expressed in HEK293 cells (Homo sapiens, UniProt Q13224); assay: Reversal of Ro 25-6981-mediated suppression of the Ca2+ response (fluo-8 fluorescence, FDSS) in HEK293 cells expressing GRIN1 and GRIN2B; type: cell-based; settings: % reversal=100*(R−Rneg)/(Rpos−Rneg) of Ro 25-6981 suppression of co-agonist (glutamate/glycine) Ca2+ response, 10 min pre-incubation, compound concentration not given
T1 construct: host or cells: HEK293
T1 sequence (Q13224 27-1484, other chains not shown): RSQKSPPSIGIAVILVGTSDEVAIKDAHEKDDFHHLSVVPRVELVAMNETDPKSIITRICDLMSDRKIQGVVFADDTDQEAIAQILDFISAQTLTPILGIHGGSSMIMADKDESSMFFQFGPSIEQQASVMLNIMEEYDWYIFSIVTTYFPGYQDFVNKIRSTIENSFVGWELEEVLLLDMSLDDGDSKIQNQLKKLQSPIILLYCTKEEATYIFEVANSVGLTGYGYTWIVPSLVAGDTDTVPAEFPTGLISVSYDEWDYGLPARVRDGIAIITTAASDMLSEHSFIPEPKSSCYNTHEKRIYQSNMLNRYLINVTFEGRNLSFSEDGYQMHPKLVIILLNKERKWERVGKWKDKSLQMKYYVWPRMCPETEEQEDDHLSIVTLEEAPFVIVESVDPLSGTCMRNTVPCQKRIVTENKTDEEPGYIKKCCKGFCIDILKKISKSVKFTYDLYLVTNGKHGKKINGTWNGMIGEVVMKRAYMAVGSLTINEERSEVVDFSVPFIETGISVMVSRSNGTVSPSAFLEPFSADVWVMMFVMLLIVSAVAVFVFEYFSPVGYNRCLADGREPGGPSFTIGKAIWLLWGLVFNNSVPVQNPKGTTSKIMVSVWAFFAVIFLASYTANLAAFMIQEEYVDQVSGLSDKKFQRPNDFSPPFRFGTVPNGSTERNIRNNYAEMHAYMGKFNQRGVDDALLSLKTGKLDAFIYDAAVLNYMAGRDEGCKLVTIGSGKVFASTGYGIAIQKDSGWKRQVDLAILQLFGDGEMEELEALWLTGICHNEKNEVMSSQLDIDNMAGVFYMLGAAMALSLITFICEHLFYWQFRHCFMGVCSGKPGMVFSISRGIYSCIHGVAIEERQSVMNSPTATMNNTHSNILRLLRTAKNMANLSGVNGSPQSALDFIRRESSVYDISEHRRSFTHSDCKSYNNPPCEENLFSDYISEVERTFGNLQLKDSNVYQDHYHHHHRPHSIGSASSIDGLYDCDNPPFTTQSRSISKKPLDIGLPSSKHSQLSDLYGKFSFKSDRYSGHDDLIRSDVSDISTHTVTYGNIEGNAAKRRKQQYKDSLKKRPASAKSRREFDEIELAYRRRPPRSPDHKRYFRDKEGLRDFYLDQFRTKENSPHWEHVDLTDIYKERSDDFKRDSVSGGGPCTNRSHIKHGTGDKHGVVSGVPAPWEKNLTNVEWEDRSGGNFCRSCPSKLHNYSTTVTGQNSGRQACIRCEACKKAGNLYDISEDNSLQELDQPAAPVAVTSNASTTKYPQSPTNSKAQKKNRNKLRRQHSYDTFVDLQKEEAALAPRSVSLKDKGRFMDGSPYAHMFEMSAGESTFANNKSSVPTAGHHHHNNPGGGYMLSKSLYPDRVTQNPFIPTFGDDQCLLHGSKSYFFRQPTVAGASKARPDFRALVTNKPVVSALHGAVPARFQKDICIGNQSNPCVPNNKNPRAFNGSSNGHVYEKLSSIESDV
Method: HEK293 cells with constructs conferring stable expression of the GRIN1 gene and tetracycline-inducible expression of the GRIN2B gene (Chantest, Cleveland, Ohio) are grown to ˜75% confluence in tissue culture flasks at 37° C., 5% CO2. NR2B expression is induced by overnight incubation with 0.3-0.4 μg/ml tetracycline in the presence of 2.5 mM ARL-15896 at 37° C., followed by moving to 30° C. for 3-5 hours. Cells are next harvested using TripleExpress™ (Life Technologies, Carlsbad, Calif.) according to the manufacturer's instructions, first removing culture medium, rinsing with Dulbecco's phosphate buffered saline (Ca^2+ and Mg^2+-free), and then adding the TripleExpress™ reagent. Harvested cells are spun down, washed twice in Ca^2+- and Mg^2+-free Hank's Balanced Salt Solution with 20 mM HEPES and 10 mM glucose, pH 7.4 (HHnoCa solution), and counted with viability assessed using Trypan Blue. Cells are loaded with fluo-8 Ca^2+-sensitive dye in HHnoCa solution according to the manufacturer's directions (AAT Bioquest, Sunnyvale, Calif.), incubating at 37° C. for 20 minutes followed by 25 minutes at 22-25° C. After a wash in HHnoCa to remove extracellular dye, cells are resuspended in HHnoCa and plated at […] cells per well in a volume of 25 μl/well in 384 well black-wall, clear bottom plates (Hamamatsu, Middlesex, N.J.). Plates are then centrifuged to create a monolayer in the wells and stored in the dark until used.
Prior to analysis, compound plates are prepared with each compound at 6× the final desired concentration. From stock solutions at 10 mM in 100% DMSO, compounds are spotted in the desired amounts using an ECHO liquid handler (Labcyte, Sunnyvale, Calif.) into wells of a 384-well plate and then diluted with 50 μl of HHnoCa containing 750 nM Ro 25-6981 and 120 μM 5,7-dichlorokynurenic acid (both purchased from Tocris Bioscience (Bristol, England) and maintained as 10 mM stock solutions in 100% DMSO). To insure complete compound dissolution, these plates are then placed in an orbital shaker for at least one hour. Also prepared prior to the assay is a co-agonist plate containing HHnoCa with 240 μM glutamate, 2.4 mM glycine, and 7.2 mM CaCl2, which is 2.4× the desired final concentration of each reagent. Both the compound plate and co-agonist plate are 384-well polypropylene plates from Thermo Fisher Scientific, Waltham, Mass.
The assay is performed by first adding 10 μl solution from each well of the compound plate described above to the cell plate using a CyBiWell liquid handler (Analytik Jena AG, Jena, Germany), followed by 10 minutes pre-incubation in the dark. Cell plates are then loaded onto a Hamamatsu FDSS 6000 plate reader. After a 30-second baseline, 25 μl is added to each well from the co-agonist plate, and the fluorescence signal is recorded for another 2 minutes. FDSS software applies shading and autofluorescence correction, and resultant raw fluorescence measurements are exported in the form of a fluorescence ratio for each well to its own reading at time zero in the experiment. In each plate, negative control wells consist of wells where Ro 25-6981 and 5,7 dichlorokynurenic acid are present and co-agonist is applied in the absence of any added assay compound. Under these conditions, the Ca^2+ response to co-agonist is suppressed. Positive control wells also present in each plate contain 5,7 dichlorokynurenic acid but no Ro 25-6981, so that co-agonist addition results in a large Ca^2+ response. Compounds tested are evaluated on the basis of their ability to reverse the suppression of the Ca^2+ response mediated by Ro 25-6981, which is quantified as % reversal=100*(R−Rneg)/(Rpos−Rneg) where R is the fluorescence ratio for the test compound at the end of the experiment and Rneg and Rpos are the end ratios for the negative and positive controls, respectively. […]

Row | SMILES | Response Recovered (%)
1 | O=C(On1cnc2scc(-c3ccc(Cl)c(C(F)(F)F)c3)c2c1=O)N1CCCC1 [Example 85, 5-(4-chloro-3-(trifluoromethyl)phenyl)-4-oxothieno[2,3-d]pyrimidin-3(4H)-yl pyrrolidine-1-carboxylate] | 51%
2 | O=C(COn1cnc2scc(-c3ccc(Cl)c(C(F)(F)F)c3)c2c1=O)N1CCCC1 [Example 92, 5-(4-chloro-3-(trifluoromethyl)phenyl)-3-(2-oxo-2-(pyrrolidin-1-yl)ethoxy)thieno[2,3-d]pyrimidin-4(3H)-one] | 37%
3 | O=C(Cn1cnc2scc(-c3ccc(F)c(Cl)c3)c2c1=O)N1CCCC1 [Example 30, 5-(3-chloro-4-fluorophenyl)-3-[2-oxo-2-(pyrrolidin-1-yl)ethyl]-3H,4H-thieno└2,3-d┘pyrimidin-4-one] | 41%
4 | O=c1c2c(-c3ccc(Cl)c(C(F)(F)F)c3)csc2ncn1/N=C/N1CCCC1 [Example 94, (E)-5-(4-chloro-3-(trifluoromethyl)phenyl)-3-((pyrrolidin-1-ylmethylene)amino)thieno[2,3-d]pyrimidin-4(3H)-one] | 18%
5 | O=C(COn1cnc2scc(-c3ccc(F)c(Cl)c3)c2c1=O)N1CCCC1 [Example 93, 5-(3-chloro-4-fluorophenyl)-3-[2-oxo-2-(pyrrolidin-1-yl)ethoxy]-3H,4H-thieno┌2,3-d┐pyrimidin-4-one] | −1%
6 | CC(C)(C)c1ccc(-c2csc3ncn(CC(=O)N4CCCC4)c(=O)c23)cc1 [Example 35, 5-(4-tert-butylphenyl)-3-[2-oxo-2-(pyrrolidin-1-yl)ethyl]-3H,4H-thieno[2,3-d]pyrimidin-4-one] | 14%
7 | O=C(CCn1cnc2scc(-c3ccc(Cl)c(C(F)(F)F)c3)c2c1=O)N1CCCC1C(F)(F)F (centres unmarked) [Example 103, 5-[4-chloro-3-(trifluoromethyl)phenyl]-3-{3-oxo-3-[2-(trifluoromethyl)pyrrolidin-1-yl]propyl}-3H,4H-thieno[2,3-d]pyrimidin-4-one] | −2%
8 | O=C(Cn1cnc2scc(-c3ccc(C(F)(F)F)cc3)c2c1=O)N1CCCC1C(F)(F)F (centres unmarked) [Example 18, 3-{2-oxo-2-[2-(trifluoromethyl)pyrrolidin-1-yl]ethyl}-5-[4-(trifluoromethyl)phenyl]-3H,4H-thieno[2,3-d]pyrimidin-4-one] | 8%
9 | O=C(Cn1cnc2scc(-c3cncnc3)c2c1=O)N1CCCC1 [Example 40, 3-[2-oxo-2-(pyrrolidin-1-yl)ethyl]-5-(pyrimidin-5-yl)-3H,4H-thieno[2,3-d]pyrimidin-4-one] | 1%
10 | CN1CCN(C(=O)Cn2cnc3scc(-c4ccc(Cl)cc4)c3c2=O)CC1 [Example 3, 5-(4-chlorophenyl)-3-[2-(4-methylpiperazin-1-yl)-2-oxoethyl]-3H,4H-thieno└2,3-d┘pyrimidin-4-one] | 3%
11 | O=C(Cn1cnc2scc(-c3ccc(Cl)c(Cl)c3)c2c1=O)N1CCC(F)C1 (centres unmarked) [Example 60, 5-(3,4-dichlorophenyl)-3-[2-(3-fluoropyrrolidin-1-yl)-2-oxoethyl]-3H,4H-thieno[2,3-d]pyrimidin-4-one] | 98%
12 | O=C(Cn1cnc2sc(-c3ccc(Cl)cc3)cc2c1=O)N1CCCC1 [Example 74, 6-(4-chlorophenyl)-3-(2-oxo-2-(pyrrolidin-1-yl)ethyl)thieno[2,3-d]pyrimidin-4(3H)-one] | 1%
13 | O=C(Nn1cnc2scc(-c3ccc(Cl)c(C(F)(F)F)c3)c2c1=O)N1CCCC1 [Example 89, N-(5-(4-chloro-3-(trifluoromethyl)phenyl)-4-oxothieno[2,3-d]pyrimidin-3(4H)-yl)pyrrolidine-1-carboxamide] | 29%
14 | O=C(Cn1cnc2scc(-c3ccc(Cl)c(C(F)(F)F)c3)c2c1=O)N1CCCC1 [Example 20, 5-(4-chloro-3-(trifluoromethyl)phenyl)-3-(2-oxo-2-(pyrrolidin-1-yl)ethyl)thieno[2,3-d]pyrimidin-4(3H)-one] | 76%
